The source of these data is PubChem BioAssay (NCI).

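96-well plates; 48 h exposure; 5 concentrations. Endpoints by linear interpolation between flanking doses. Not reached: highest tested concentration assigned. Here, GI50 denotes the concentration required for 50% inhibition of growth. TGI denotes the concentration required for complete inhibition of growth.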 Bounds are passed on as bounds.

Common to all, as to experiment: DTP human tumour cell line panel, 48 h
In test [1] the test system is A498 renal.
The test system of test [2] is CAKI-1 renal.
Test [3] concerns K-562 leukemia.
Test [4] concerns OVCAR-8 ovarian.
Test [5] concerns SF-539 CNS.
Test [6] concerns NCI-H460 lung.
Test [7] concerns UACC-62 melanoma.
For test [8], the system named is TK-10 renal.
Test [9] deals with HL-60(TB) leukemia.
For test [10], the system named is NCI-H522 lung.

`CCOC(=O)c1sc2c(c1OC(=O)c1ccccc1)c(=O)n(-c1ccccc1)c(=S)n2-c1ccccc1`: the TGI was 31 µM in [1]; over 100 µM in test [2]; over 100 µM in test [3]; over 100 µM in [4]; 47.7 µM in test [5]; 41.5 µM in test [6]. For the same compound, the TGI was 52.3 µM in [7], over 100 µM in test [8], over 100 µM in test [9] and 56.3 µM in test [10].
As to `N#Cc1c2c(c(N3CCOCC3)n3c1nc1ccccc13)CCCC2`, the TGI in test [1] is 34.5 µM; in test [2] it was 37.9 µM; in test [3], over 100 µM; in [4], 43.4 µM; in test [5], 39.3 µM; in [6], 56.4 µM. Further, the TGI in test [7] came to 55.5 µM; in test [8], 49.3 µM; in [9], 35.5 µM; in [10], 30.1 µM.
`NC(=O)COc1ccccc1`: the TGI in test [1], in test [2], in [3], in [4], in test [5] and in [6] was over 100 µM throughout. For the same compound, the TGI in [7], in [8], in [9] and in test [10] was over 100 µM throughout.
For the compound `O=[As](O)(O)c1cc(N=Nc2ccc(-c3ccc(N=Nc4cc([As](=O)(O)O)c(O)cc4O)cc3)cc2)c(O)cc1O`, the TGI in test [1] was over 73.4 µM; in [2], over 100 µM; in test [3] it was over 100 µM; in [4], over 100 µM; in test [5], over 100 µM; in test [6] it was over 100 µM. The TGI in test [7] is over 100 µM; in [8], over 100 µM; in test [9] it was over 67.6 µM; in test [10], over 100 µM.
With `NC(N)=N/N=C/c1nc2sccn2c1[N+](=O)[O-]`, the concentration for total growth inhibition (TGI) in test [1] is over 100 µM; in test [2], over 100 µM; in test [3], 85.8 µM; in test [4], over 100 µM; in [5], over 100 µM; in test [6] it was 40.9 µM. For the same compound, the TGI in test [7] is over 100 µM; in test [8], over 100 µM; in test [9], 34.1 µM; in [10], 89.9 µM.
Take `O=C(Nc1cccc(-c2cn3ccccc3n2)c1)c1ccncc1`: the TGI in [1] was over 100 µM; in test [2], over 100 µM; in [3], 61 µM; in test [4], over 100 µM; in test [5] it was over 100 µM; in [6], 39 µM. The TGI in test [7] is 42.2 µM; in [8], over 100 µM; in test [9], 45.8 µM; in test [10] it was 72.4 µM.
As for `Cc1ccc2c(c1)OC1Nc3ccccc3C1=C2O` (stereo not given), the TGI is 45.5 µM in test [1]; 97.5 µM in test [2]; over 100 µM in test [3]; over 100 µM in [4]; 44.4 µM in test [5]; 64.3 µM in [6]. The TGI in [7] is 48 µM; in test [8], 78.3 µM; in test [9] it was 43.1 µM; in test [10], over 100 µM.
Take `CCN(CC)CCCNc1ccc2nnn3c4ccc(O)cc4c(=O)c1c23`: the TGI in test [1] was found to be 24.3 µM; in test [2], 17 µM; in test [3], 53.3 µM; in test [4], 12.9 µM; in test [5] it was 22.8 µM; in test [6], 9.13 µM. The TGI came to 30.9 µM in test [7], 17.6 µM in [8], 33.2 µM in test [9] and 24.3 µM in [10].
As for `CCCCCCCCCCCCCCCCCCOCC(O)COP(=O)(O)OCC1OC(n2cc(F)c(=O)[nH]c2=O)CC1O` (stereo not given), the TGI in test [1] was over 56 µM; in test [2] it was 26.8 µM; in test [3], 32.1 µM; in test [4], 18.9 µM; in test [5] it was 12.4 µM; in [6], 21.1 µM. Moreover, the TGI in test [7] worked out at 9.7 µM; in test [8], 24.6 µM; in test [9] it was 25.1 µM; in test [10], 27.9 µM.
For `COc1cc(C2C3=C(COC3=O)OC(C)(C)Oc3cc4c(cc32)OCO4)cc(OC)c1OC` (stereo not given), the TGI was 1.49 µM in test [1]; over 100 µM in test [2]; over 36 µM in test [3]; over 100 µM in test [4]; 0.582 µM in test [5]; over 100 µM in test [6]. Also, the TGI in test [7] was over 20 µM; in [8] it was over 100 µM; in test [9], 1.26 µM; in test [10] it was 30.1 µM.
In the case of `CCCCSc1n/c(=C\c2ccc(N(C)C)cc2)c2nnnn12`, the TGI in [1], in test [2], in test [3], in [4], in [5] and in test [6] was over 100 µM each time. Further, the TGI in [7], in test [8], in [9] and in [10] was over 100 µM throughout.
Consider `COc1cc(/C=C2/SC(c3ccccc3)N(c3cccc([N+](=O)[O-])c3)C2=O)cc(OC)c1OC` (stereo not given), for which the TGI in test [1], in test [2], in [3], in [4], in [5] and in [6] was over 100 µM each time. Moreover, the TGI in [7], in test [8], in test [9] and in test [10] was over 100 µM in each case.
Take `CC#CC(O)(C(=O)OC1CCCN(C)C1)C1=CC=CCC1` (stereo not given): the TGI in test [1], in [2], in test [3], in test [4], in test [5] and in test [6] was over 100 µM in each case. The TGI in [7], in test [8], in test [9] and in test [10] was over 100 µM each time.
Consider `O=c1[nH]nc(Cc2ccc(Cl)cc2)n1O`, for which the TGI in [1], in test [2], in test [3], in [4], in [5] and in test [6] was over 100 µM in each case. In addition, the TGI in [7], in [8], in [9] and in test [10] was over 100 µM in each case.
For the compound `COc1cccc(-c2nc3sccn3c2-c2ccnc(NCCNC(=O)Nc3cccc(C(F)(F)F)c3)n2)c1`, the GI50 in [1] is 2.44 µM; in test [2], 3.5 µM; in [3], 3.48 µM; in test [4], 3.28 µM; in test [5], 3.83 µM; in test [6], 2.94 µM. The GI50 in [7] was 2.55 µM; in test [8], 3.6 µM; in [9], 2.92 µM; in [10], 2.67 µM. In addition, the TGI in test [1] is 17.5 µM; in test [2], 10.3 µM; in [3], over 100 µM; in [4] it was 9.79 µM; in test [5], 17.1 µM; in test [6], 14.4 µM. Also, the TGI in test [7] came out at 7.48 µM; in [8] it was 18.8 µM; in test [9], 7.43 µM; in [10], 8.51 µM.
Turning to `CCOP(=O)(OCC)C(Nc1ccc(F)cc1)c1cccc([N+](=O)[O-])c1` (stereo not given), the TGI in test [1], in test [2], in [3], in test [4], in [5] and in [6] was over 100 µM in each case. Further, the TGI in test [7], in test [8], in test [9] and in test [10] was over 100 µM each time.
Regarding `COc1ccc(NC2Oc3cc4c(cc3C(c3cc(OC)c(O)c(OC)c3)C2C)OCO4)cc1` (stereo not given), the TGI in test [1] was 31.7 µM; in test [2], 30 µM; in test [3] it was 12.3 µM; in test [4], 67.7 µM; in test [5], 25.6 µM; in test [6], 23.3 µM. For the same compound, the TGI in [7] amounted to 35.2 µM; in test [8], 17.7 µM; in test [9], 4.51 µM; in test [10], 27.3 µM.
As for `CSC(=NC1=NC(C(F)(F)F)(C(F)(F)F)N=C(c2ccccc2)O1)SC`, the TGI is 51.6 µM in test [1]; 44.8 µM in test [2]; over 100 µM in test [3]; over 100 µM in test [4]; over 100 µM in [5]; over 100 µM in [6]. Moreover, the TGI in test [7] is 64.2 µM; in [8], over 100 µM; in [9] it was 64 µM; in test [10], 25 µM.
Consider `COC1/C=C/C(C)C(C(C)C(OC)C(C)CCC(=O)C(C)C(CCC(=O)O)OC)OC(=O)/C=C/C=C(\C)CC(OC)CC2=CC(=O)O[C@@H](C(C)C(OC)CC(OC)/C=C/C(C)C(OC)C1)[C@H]2O` (stereo not given in full), for which the TGI was 0.343 µM in test [1]; 0.934 µM in test [2]; over 5 µM in [3]; over 5 µM in [4]; over 5 µM in test [5]; over 5 µM in test [6]. For the same compound, the total growth inhibition concentration (TGI) in [7] was over 4.31 µM; in [8] it was over 5 µM; in test [9], 1 µM; in [10], over 5 µM.

What is called TGI is the concentration at which net growth stops. Broadly, the GI50 is the concentration at which growth is held to half of that of the control.
